The record followed here is PubChem BioAssay (NCI).

Among the test systems are MALME-3M melanoma; SK-OV-3 ovarian; PC-3 prostate; NCI/ADR-RES ovarian; SK-MEL-28 melanoma; SR leukemia; COLO 205 colon; OVCAR-4 ovarian; CAKI-1 renal; K-562 leukemia.
Common to all, as to experiment: DTP human tumour cell line panel, 48 h

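In this assay, cells in 96-well plates receive the compound at five concentrations for 48 hours. Endpoints are linearly interpolated between the surrounding concentrations. GI50 marks 50% less growth. TGI: total growth inhibition.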

Turning to `C[C@]12CCC(=O)[C@@H](CCC3=CC(=O)C=CC3=O)[C@@H]1CCC2=O`, the TGI with MALME-3M melanoma was 37.9 µM; in the assay on SK-OV-3 ovarian it was 63.9 µM; in the assay with PC-3 prostate, 27.5 µM; in the assay with NCI/ADR-RES ovarian, over 100 µM; in the assay with SK-MEL-28 melanoma, 37.1 µM; with SR leukemia, over 100 µM. For the same compound, the TGI was 31.2 µM in the assay with COLO 205 colon, 53.2 µM with OVCAR-4 ovarian, 27.7 µM in the assay with CAKI-1 renal and over 100 µM with K-562 leukemia.

For `COc1ccccc1C1Nn2c(nc3ccccc3c2=O)N1c1ccc(C)cc1` (centres undefined), the TGI is 38.7 µM in the assay on MALME-3M melanoma; 15.7 µM in the assay on SK-OV-3 ovarian; 10.8 µM in the assay with PC-3 prostate; 23.6 µM in the assay with NCI/ADR-RES ovarian; 20.3 µM in the assay with SK-MEL-28 melanoma; 6.43 µM in the assay with SR leukemia. Moreover, the TGI is 21.2 µM in the assay on COLO 205 colon, 11.9 µM in the assay on OVCAR-4 ovarian, 24.1 µM with CAKI-1 renal and 33.8 µM in the assay on K-562 leukemia.

As for `CC(C)C(=O)C(C)(C)CCc1ccccn1`, the TGI in the assay on MALME-3M melanoma, in the assay on SK-OV-3 ovarian, in the assay on PC-3 prostate, in the assay on NCI/ADR-RES ovarian, in the assay with SK-MEL-28 melanoma and in the assay with SR leukemia was over 100 µM throughout. Moreover, the TGI in the assay on COLO 205 colon, with OVCAR-4 ovarian, in the assay on CAKI-1 renal and in the assay with K-562 leukemia was over 100 µM in each case.

Turning to `CC(C)C(CC(=O)OCC(CO)OC(=O)CC(C(C)C)C(C)C)C(C)C` (centres undefined), the TGI was 28.4 µM in the assay on MALME-3M melanoma; 30.9 µM in the assay with SK-OV-3 ovarian; 30.3 µM in the assay with PC-3 prostate; 27.3 µM in the assay with NCI/ADR-RES ovarian; 30.3 µM in the assay with SK-MEL-28 melanoma; over 100 µM with SR leukemia. Also, the TGI with COLO 205 colon worked out at 20 µM; with OVCAR-4 ovarian, 33.4 µM; in the assay with CAKI-1 renal, 25.4 µM; with K-562 leukemia, 33 µM.

As to `O=C(CCc1cc(O)cc(O)c1)NCCCNC(=O)CCc1cc(O)cc(O)c1`, the TGI in the assay with MALME-3M melanoma, in the assay on SK-OV-3 ovarian, with PC-3 prostate, in the assay on NCI/ADR-RES ovarian, in the assay with SK-MEL-28 melanoma and in the assay with SR leukemia was over 100 µM each time. The TGI in the assay with COLO 205 colon, in the assay on OVCAR-4 ovarian, with CAKI-1 renal and with K-562 leukemia was over 100 µM each time.

As for `CN(C)CC1CCC/C(=C\c2ccc(OC(=O)c3ccc(Cl)cc3)cc2)C1=O` (centres undefined), the TGI in the assay with MALME-3M melanoma is 6.8 µM; in the assay on SK-OV-3 ovarian it was 34.6 µM; in the assay with PC-3 prostate, 18.4 µM; in the assay with NCI/ADR-RES ovarian, 4.99 µM; in the assay with SK-MEL-28 melanoma, 8.52 µM; in the assay on SR leukemia, over 100 µM. The TGI turned out to be 4.81 µM in the assay on COLO 205 colon, 8.94 µM with OVCAR-4 ovarian, 5.13 µM in the assay with CAKI-1 renal and 3.8 µM in the assay on K-562 leukemia.

Consider `Cc1ccc2c(c1)-c1c(C#N)c(N)nc(-c3ccc(Cl)cc3)c1CCS2(=O)=O`, for which the TGI was over 100 µM in the assay on MALME-3M melanoma; over 100 µM with SK-OV-3 ovarian; over 100 µM with PC-3 prostate; 98.2 µM with NCI/ADR-RES ovarian; over 100 µM in the assay with SK-MEL-28 melanoma; 6.18 µM with SR leukemia. Besides, the TGI is 31.3 µM with COLO 205 colon, over 100 µM in the assay with OVCAR-4 ovarian, over 100 µM in the assay on CAKI-1 renal and 7.02 µM in the assay on K-562 leukemia.

As for `CCC(O)(Cc1ccc(OC)cc1)c1ccc(OC)cc1` (centres undefined), the TGI with MALME-3M melanoma, in the assay with SK-OV-3 ovarian, in the assay with PC-3 prostate, in the assay with NCI/ADR-RES ovarian, in the assay on SR leukemia and with COLO 205 colon was over 100 µM in each case. For the same compound, the TGI in the assay on OVCAR-4 ovarian, in the assay on CAKI-1 renal and in the assay with K-562 leukemia was over 100 µM in each case.

Consider `COc1ccccc1CN=C1Nc2ccncc2S(=O)(=O)N1c1ccccc1`, for which the TGI with MALME-3M melanoma, in the assay with SK-OV-3 ovarian, in the assay with PC-3 prostate, with NCI/ADR-RES ovarian, with SK-MEL-28 melanoma and in the assay on SR leukemia was over 100 µM throughout. The TGI with COLO 205 colon, in the assay with OVCAR-4 ovarian, in the assay with CAKI-1 renal and in the assay with K-562 leukemia was over 100 µM each time.

On to `COc1cc(C(c2c(O)c3ccccc3oc2=O)c2c(O)c3ccccc3oc2=O)cc(Br)c1O`, for which the TGI was found to be 31 µM in the assay with MALME-3M melanoma; 35.8 µM in the assay with SK-OV-3 ovarian; 35 µM in the assay with PC-3 prostate; 53.1 µM with NCI/ADR-RES ovarian; 59.2 µM in the assay on SK-MEL-28 melanoma; 58.3 µM with SR leukemia. Further, the TGI in the assay with COLO 205 colon was 32 µM; in the assay on OVCAR-4 ovarian, 30.9 µM; in the assay on CAKI-1 renal, 34.9 µM; with K-562 leukemia it was over 100 µM.

As for `CN(C)CCCNC(=O)c1cc(NC(=O)c2cc(NC(=O)CCCn3c4ccccc4c4ccccc43)cn2C)cn1C`, the TGI was over 49 µM with MALME-3M melanoma; 30.8 µM in the assay with SK-OV-3 ovarian; over 56.3 µM in the assay on PC-3 prostate; 53.2 µM in the assay with NCI/ADR-RES ovarian; 92 µM in the assay on SK-MEL-28 melanoma; 4.82 µM in the assay with SR leukemia. Besides, the TGI with COLO 205 colon is 7.88 µM; in the assay with OVCAR-4 ovarian it was 35.5 µM; with CAKI-1 renal, 43.5 µM; in the assay on K-562 leukemia, 11.6 µM. In the assay on SR leukemia, the GI50 was 2.24 µM.

Regarding `N#CC1(O)CCCCCCCCCCC1`, the TGI in the assay on MALME-3M melanoma, in the assay with SK-OV-3 ovarian, in the assay on PC-3 prostate, in the assay on NCI/ADR-RES ovarian, in the assay with SK-MEL-28 melanoma and with SR leukemia was over 100 µM each time. For the same compound, the TGI in the assay on COLO 205 colon, with OVCAR-4 ovarian, in the assay on CAKI-1 renal and with K-562 leukemia was over 100 µM in each case.

Consider `C/C=C(/C)C(=O)OC1CC(C)[C@H]2CC(=O)C(C)=C2CC1C(C)(C)OC(C)=O` (some centres undefined), for which the total growth inhibition concentration (TGI) with MALME-3M melanoma was 54 µM; with PC-3 prostate it was over 100 µM; in the assay on NCI/ADR-RES ovarian it was 71.7 µM; in the assay with SK-MEL-28 melanoma, over 100 µM; with SR leukemia, 78.9 µM; with COLO 205 colon, 43.8 µM. For the same compound, the TGI in the assay on OVCAR-4 ovarian is 68 µM; in the assay with CAKI-1 renal, over 100 µM; in the assay with K-562 leukemia it was over 100 µM.

Turning to `CC(=O)OCC1OC(n2c(-c3ccccc3)c(N=Nc3ccccc3)c(C)c(C#N)c2=S)C(OC(C)=O)C(OC(C)=O)C1OC(C)=O` (centres undefined), the TGI in the assay with MALME-3M melanoma, with SK-OV-3 ovarian, in the assay with PC-3 prostate, with NCI/ADR-RES ovarian, in the assay on SK-MEL-28 melanoma and in the assay with SR leukemia was over 100 µM each time. Further, the TGI with COLO 205 colon, in the assay on OVCAR-4 ovarian, with CAKI-1 renal and with K-562 leukemia was over 100 µM throughout.

Consider `Cc1cc2c(O)c(c1)CN(CC(=O)O)Cc1cc(C)cc(c1O)CN(CC(=O)O)Cc1cc(C)cc(c1O)CN(CC(=O)O)C2`, for which the TGI with MALME-3M melanoma, with SK-OV-3 ovarian, in the assay on PC-3 prostate, in the assay with NCI/ADR-RES ovarian, with SK-MEL-28 melanoma and in the assay with SR leukemia was over 100 µM in each case. Further, the TGI in the assay with COLO 205 colon, in the assay on OVCAR-4 ovarian, in the assay on CAKI-1 renal and in the assay on K-562 leukemia was over 100 µM in each case.

As to `CCn1c2ccc(C(=O)CCCN3CCCCC3)cc2c2cc(C(=O)CCCN3CCCCC3)ccc21`, the TGI in the assay with MALME-3M melanoma is 18.5 µM; with SK-OV-3 ovarian, 13.4 µM; in the assay with PC-3 prostate, 12.6 µM; with NCI/ADR-RES ovarian, 13.1 µM; with SK-MEL-28 melanoma, 34.8 µM; in the assay with SR leukemia it was 5.31 µM. Moreover, the TGI with COLO 205 colon is 15.7 µM; in the assay on OVCAR-4 ovarian, 5.65 µM; with CAKI-1 renal it was 8.54 µM; in the assay with K-562 leukemia, over 22.6 µM.

Consider `CSc1nc(NC(C)C)c2c(n1)Sc1nc3ccccc3n1N=C2`, for which the TGI with MALME-3M melanoma was 38 µM; in the assay with SK-OV-3 ovarian, 28.2 µM; in the assay on PC-3 prostate it was over 100 µM; with NCI/ADR-RES ovarian it was 46.7 µM; with SK-MEL-28 melanoma, over 100 µM; in the assay on SR leukemia, over 100 µM. Moreover, the TGI is over 100 µM in the assay on COLO 205 colon, 22.5 µM with OVCAR-4 ovarian, over 100 µM in the assay on CAKI-1 renal and over 100 µM in the assay with K-562 leukemia.

For the compound `CCCCSc1nsc(N(C(=O)c2ccccc2)C(=O)c2ccccc2)n1`, the TGI is 71.1 µM in the assay with MALME-3M melanoma; over 100 µM in the assay with SK-OV-3 ovarian; over 100 µM in the assay on PC-3 prostate; over 100 µM with NCI/ADR-RES ovarian; over 100 µM in the assay on SK-MEL-28 melanoma; 48.3 µM with SR leukemia. The TGI with COLO 205 colon was 41.5 µM; in the assay with OVCAR-4 ovarian, over 100 µM; with CAKI-1 renal, over 100 µM; in the assay on K-562 leukemia it was 99.7 µM.

Take `O=C(OCCN=c1c2ccccc2ccc2ccccc12)c1ccccc1`: the TGI in the assay on MALME-3M melanoma, in the assay on SK-OV-3 ovarian, in the assay with PC-3 prostate, in the assay with NCI/ADR-RES ovarian, in the assay with SK-MEL-28 melanoma and in the assay with SR leukemia was over 100 µM throughout. The TGI in the assay on COLO 205 colon, with OVCAR-4 ovarian, with CAKI-1 renal and in the assay on K-562 leukemia was over 100 µM each time.

For the compound `O=c1[nH]c2nc3ccccc3nc2[nH]c1=O`, the TGI in the assay on MALME-3M melanoma, in the assay with SK-OV-3 ovarian, in the assay on PC-3 prostate, with NCI/ADR-RES ovarian, in the assay on SK-MEL-28 melanoma and with SR leukemia was over 100 µM each time. Besides, the TGI with COLO 205 colon, in the assay with OVCAR-4 ovarian, in the assay with CAKI-1 renal and in the assay on K-562 leukemia was over 100 µM each time.

The term TGI denotes the concentration at which net growth stops. A high value points to lower sensitivity of the cells. As a reminder, the GI50 is the concentration that inhibits growth by half.
